Results as given in patent publication US12534472B2, “Morphic forms of trilaciclib and methods of manufacture thereof” (Pharmacosmos Holding A/S, priority 2020, dated 2026).

How the values were obtained:
Assay type in all cases: physicochemical
[1] = Dynamic Vapor Sorption (DVS); details: for Change in Mass (%)-ref Desorption / Change in Mass (%)-ref Sorption / Change in Mass (%)-ref Hysteresis: DVS; for Change in Mass (%)-ref Desorption / Change in Mass (%)-ref Sorption: 25° C.
Description: Approximately, 10-20 mg of sample was placed into a mesh vapor sorption balance pan and loaded into a DVS Intrinsic dynamic vapor sorption balance by Surface Measurement Systems. The sample was subjected to a ramping profile from 40-90% relative humidity (RH) at 10% increments, maintaining the sample at each step until a stable weight had been achieved (dm/dt 0.004%, minimum step length 30 minutes, maximum step length 500 minutes) at 25° C. After completion of the sorption cycle, the sample was dried using the same procedure to 0% RH and then a second sorption cycle back to 40% RH. Two cycles were performed. The weight change during the sorption/desorption cycles were plotted, allowing for the hygroscopic nature of the sample to be determined. XRPD analysis was then carried out on any solid retained. The above technique was used to generate the images in FIG. 5, FIG. 6, FIG. 47 and FIG. 48.

[2] = Dynamic Vapor Sorption (DVS); details: Cycle 3, sorption, 25° C.
[3] = Thermodynamic solubility in water at pH 4.2
Description: Thermodynamic solubility was carried out for Pattern 1, Pattern 2/6 mixture, Pattern 3, amorphous di-HCl salts and Pattern 7 in water at pH 4.2. All samples were prepared at 30 mg/mL. Initial observations were made. The samples were agitated at ambient temperature for ca. 24 hours. The samples were collected and observations made. Observed solids were isolated via centrifugation. The mother liquor from the filtered sample was analyzed by HPLC. The pH 4.3 solution was prepared by diluting glacial acetic acid (11.6 mL) to 100 mL in deionized water, then adding sodium acetate (1.07 g) and acetic acid solution (5.9 mL) preparing up to 500 mL with deionized water; then the pH was adjusted to 4.2. The above technique was used to generate the images in FIG. 60.

Change in Mass (%)-ref Desorption ([1]; Cycle 1, desorption, target RH 0%): 0.000%
Change in Mass (%)-ref Desorption ([1]; Cycle 1, desorption, target RH 10%): 0.863%
Change in Mass (%)-ref Desorption ([1]; Cycle 1, desorption, target RH 20%): 1.274%
Change in Mass (%)-ref Desorption ([1]; Cycle 1, desorption, target RH 30%): 1.818%
Change in Mass (%)-ref Desorption ([1]; Cycle 1, desorption, target RH 40%): 2.223%
Change in Mass (%)-ref Desorption ([1]; Cycle 1, desorption, target RH 50%): 2.491%
Change in Mass (%)-ref Desorption ([1]; Cycle 1, desorption, target RH 60%): 2.727%
Change in Mass (%)-ref Desorption ([1]; Cycle 1, desorption, target RH 70%): 2.940%
Change in Mass (%)-ref Desorption ([1]; Cycle 1, desorption, target RH 80%): 3.171%
Change in Mass (%)-ref Desorption ([1]; Cycle 1, desorption, target RH 90%): 3.555%
Change in Mass (%)-ref Sorption ([1]; Cycle 1, sorption, target RH 40%): 2.516%
Change in Mass (%)-ref Sorption ([1]; Cycle 1, sorption, target RH 50%): 2.780%
Change in Mass (%)-ref Sorption ([1]; Cycle 1, sorption, target RH 60%): 2.970%
Change in Mass (%)-ref Sorption ([1]; Cycle 1, sorption, target RH 70%): 3.115%
Change in Mass (%)-ref Sorption ([1]; Cycle 1, sorption, target RH 80%): 3.288%
Change in Mass (%)-ref Sorption ([1]; Cycle 1, sorption, target RH 90%): 3.555%
Change in Mass (%)-ref Hysteresis ([1]; Cycle 1, target RH 40%): −0.292%
Change in Mass (%)-ref Hysteresis ([1]; Cycle 1, target RH 50%): −0.289%
Change in Mass (%)-ref Hysteresis ([1]; Cycle 1, target RH 60%): −0.242%
Change in Mass (%)-ref Hysteresis ([1]; Cycle 1, target RH 70%): −0.175%
Change in Mass (%)-ref Hysteresis ([1]; Cycle 1, target RH 80%): −0.117%
Change in Mass (%)-ref Desorption ([1]; Cycle 2, desorption, target RH 0%): 0.075%
Change in Mass (%)-ref Desorption ([1]; Cycle 2, desorption, target RH 10%): 0.885%
Change in Mass (%)-ref Desorption ([1]; Cycle 2, desorption, target RH 20%): 1.290%
Change in Mass (%)-ref Desorption ([1]; Cycle 2, desorption, target RH 30%): 1.711%
Change in Mass (%)-ref Desorption ([1]; Cycle 2, desorption, target RH 40%): 1.977%
Change in Mass (%)-ref Desorption ([1]; Cycle 2, desorption, target RH 50%): 2.171%
Change in Mass (%)-ref Desorption ([1]; Cycle 2, desorption, target RH 60%): 2.337%
Change in Mass (%)-ref Desorption ([1]; Cycle 2, desorption, target RH 70%): 2.510%
Change in Mass (%)-ref Desorption ([1]; Cycle 2, desorption, target RH 80%): 2.717%
Change in Mass (%)-ref Desorption ([1]; Cycle 2, desorption, target RH 90%): 3.093%
Change in Mass (%)-ref Sorption ([1]; Cycle 2, sorption, target RH 0%): 0.000%
Change in Mass (%)-ref Sorption ([1]; Cycle 2, sorption, target RH 10%): 0.831%
Change in Mass (%)-ref Sorption ([1]; Cycle 2, sorption, target RH 20%): 1.198%
Change in Mass (%)-ref Sorption ([1]; Cycle 2, sorption, target RH 30%): 1.468%
Change in Mass (%)-ref Sorption ([1]; Cycle 2, sorption, target RH 40%): 1.853%
Change in Mass (%)-ref Sorption ([1]; Cycle 2, sorption, target RH 50%): 2.092%
Change in Mass (%)-ref Sorption ([1]; Cycle 2, sorption, target RH 60%): 2.271%
Change in Mass (%)-ref Sorption ([1]; Cycle 2, sorption, target RH 70%): 2.461%
Change in Mass (%)-ref Sorption ([1]; Cycle 2, sorption, target RH 80%): 2.700%
Change in Mass (%)-ref Sorption ([1]; Cycle 2, sorption, target RH 90%): 3.093%
Change in Mass (%)-ref Hysteresis ([1]; Cycle 2, target RH 10%): 0.054%
Change in Mass (%)-ref Hysteresis ([1]; Cycle 2, target RH 20%): 0.091%
Change in Mass (%)-ref Hysteresis ([1]; Cycle 2, target RH 30%): 0.243%
Change in Mass (%)-ref Hysteresis ([1]; Cycle 2, target RH 40%): 0.124%
Change in Mass (%)-ref Hysteresis ([1]; Cycle 2, target RH 50%): 0.080%
Change in Mass (%)-ref Hysteresis ([1]; Cycle 2, target RH 60%): 0.066%
Change in Mass (%)-ref Hysteresis ([1]; Cycle 2, target RH 70%): 0.050%
Change in Mass (%)-ref Hysteresis ([1]; Cycle 2, target RH 80%): 0.018%
Change in Mass (%)-ref Sorption ([1]; Cycle 3, sorption, target RH 10%): 0.861%
Change in Mass (%)-ref Sorption ([1]; Cycle 3, sorption, target RH 20%): 1.198%
Change in Mass (%)-ref Sorption ([1]; Cycle 3, sorption, target RH 40%): 1.757%
moisture adsorbed (DVS) ([1]; at 40% RH, listed as Pattern 3 scale-up): 2.5 wt %
moisture adsorbed (DVS) ([1]; at 60% RH): 3.1 wt %
mass increase by DVS ([1]; at 90% RH): ca. 4%
moisture adsorbed (DVS) ([1]; at 90% RH, listed as Pattern 3 scale-up): 3.5 wt %
mass increase by DVS ([1]; between 0% and 90% RH): 4%
Change in Mass (%)-ref Sorption ([2]; target RH 0%): 0.075%
Change in Mass (%)-ref Sorption ([2]; target RH 30%): 1.443%
Observations at T = 24 hours ([3]; 30 mg/mL in water at pH 4.2, agitated at ambient temperature ca. 24 hours): Yellow solution
Observations at T = 0 hours ([3]; 30 mg/mL in water at pH 4.2, ambient temperature, T = 0 hours): Yellow solution (dissolved
Compound: CN1CCN(c2ccc(Nc3ncc4cc5n(c4n3)C3(CCCCC3)CNC5=O)nc2)CC1 [Pattern 3, 2′-((5-(4-methylpiperazin-1-yl)pyridin-2-yl)amino)-7′,8′-dihydro-6′H-spiro[cyclohexane-1,9′-pyrazino[1′,2′:1,5]pyrrolo[2,3-d]pyrimidin]-6′-one]
